Data: EP0504184B1, “ACTIVE AGENT AGAINST RETROVIRUS GROUP VIRUSES, COMPOSITIONS CONTAINING SAME AND THEIR USE” (PREVISAN S.A., priority 1989, dated 1991)

System: virus VIH-1
Experiment: Infectivity of pretreated HIV-1 virus for the Supt-1 line (p24 antigen in cell lysates, optical density; phase-contrast microscopy)
Format: cell-based
Settings: for multiplication du virus VIH-1 dans les cellules Supt-1: after 1, 10 and 30 minutes incubation with the agent at ordinary temperature; for Mesure d'infectivité du virus VIH-1 (D.O.492): p24 in Supt-1 lysates
Source text: Ces essais comprennent comme matériel de départ : • de la N, N'-dichloroazodicarbonamidine (chloroazodine) à 95 % pure. La pureté a été examinée par chromatographie en couche mince et par un test de carbone-hydrogène (v. BRAZ G.I. et cons., J. Applied Chem. (USSR) 17,565-9 (1944)). • un surnageant de cultures de cellules (Molt-3) continuellement productrices de virus VIH-1. Le surnageant viral utilisé a une activité de transcriptase inverse de 1 x 10^6 cpm/ml. • des cellules d'une lignée T humaine continue de phénotype T4 (Supt-1) cultivée en milieu RPMI, additionné de 10 % de sérum de veau foetal et de 1 % de glutamine.
L' efficacité de la chloroazodine va être étudiée à deux niveaux : • a) action sur l'infectivité du virus VIH-1 pour la lignée Supt-1. • b) action sur l'intégration du génome viral dans l'ADN chromosomial des cellules Supt-1.
On fait incuber des préparations virales de VIH-1 à haut titre en présence de dilutions de chloroazodine de 1/1500 et de 1/3000 et pendant différents temps d'incubation. Pendant 30 minutes à 37°C, on traite préalablement les cellules Supt-1 par 10 µg/ml de polybrène, puis on les inocule avec les préparations de virus traités. On prévoit comme témoins, des cellules non inoculées, et des cellules inoculées par une préparation de virus non traités.
On détermine ensuite l'infectivité, à chaque passage cellulaire, de ces préparations en suivant la production virale (mesure de l'antigène p24 exprimé) dans les lysats cellulaires solubilisés des cellules Supt-1 examinées.
Les mesures du pouvoir infectieux du virus VIH-1 après incubation avec de la chloroazodine ressortent des tableaux 1 à 3 suivants, ainsi que des figures 1 à 3 qui correspondent aux tableaux 1 à 3. Sur ces figures, on trouve en ordonnée la densité optique (D.O.) et en abscisse le nombre de jours après l'infection. Le trait plein représente le témoin non traite, le trait interrompu la dilution de 1/1500 de chloroazodine, et le trait pointillé la dilution de 1/3000 de chloroazodine.

NC(N=NC(N)=NCl)=NCl [chloroazodine, N, N'-dichloroazodicarbonamidine]
multiplication du virus VIH-1 dans les cellules Supt-1 (dilution 1/1500): empêche totalement le virus VIH-1 de se multiplier
multiplication du virus VIH-1 dans les cellules Supt-1 (dilution 1/3000): empêche totalement le virus VIH-1 de se multiplier
temps pour l'éradication totale des virus (low concentration, in organic medium, conclusion from examples 3 to 5): ≤ 1 min
effet cytopathogène (phase-contrast microscopy, Supt-1 cells inoculated with virus pretreated with chloroazodine (control virus: syncytia from day 14)): aucun effet cytopathogène
Mesure d'infectivité du virus VIH-1 (D.O.492) (virus incubated 1 minute with chloroazodine 1/1500, 10 days after infection): 0,174 ± 0,002
Mesure d'infectivité du virus VIH-1 (D.O.492) (virus incubated 1 minute with chloroazodine 1/1500, 14 days after infection): 0,175 ± 0,016
Mesure d'infectivité du virus VIH-1 (D.O.492) (virus incubated 1 minute with chloroazodine 1/1500, 17 days after infection): 0,152 ± 0,016
Mesure d'infectivité du virus VIH-1 (D.O.492) (virus incubated 1 minute with chloroazodine 1/1500, 21 days after infection): 0,183 ± 0,026
Mesure d'infectivité du virus VIH-1 (D.O.492) (virus incubated 1 minute with chloroazodine 1/1500, 24 days after infection): 0,180 ± 0,008
Mesure d'infectivité du virus VIH-1 (D.O.492) (virus incubated 1 minute with chloroazodine 1/3000, 10 days after infection): 0,173 ± 0,009
Mesure d'infectivité du virus VIH-1 (D.O.492) (virus incubated 1 minute with chloroazodine 1/3000, 14 days after infection): 0,149 ± 0,002
Mesure d'infectivité du virus VIH-1 (D.O.492) (virus incubated 1 minute with chloroazodine 1/3000, 17 days after infection): 0,172 ± 0,016
Mesure d'infectivité du virus VIH-1 (D.O.492) (virus incubated 1 minute with chloroazodine 1/3000, 21 days after infection): 0,202 ± 0,003
Mesure d'infectivité du virus VIH-1 (D.O.492) (virus incubated 1 minute with chloroazodine 1/3000, 24 days after infection): 0,166 ± 0,004
Mesure d'infectivité du virus VIH-1 (D.O.492) (virus incubated 10 minutes with chloroazodine 1/1500, 10 days after infection): 0,146 ± 0,004
Mesure d'infectivité du virus VIH-1 (D.O.492) (virus incubated 10 minutes with chloroazodine 1/1500, 14 days after infection): 0,151 ± 0,006
Mesure d'infectivité du virus VIH-1 (D.O.492) (virus incubated 10 minutes with chloroazodine 1/1500, 17 days after infection): 0,165 ± 0,013
Mesure d'infectivité du virus VIH-1 (D.O.492) (virus incubated 10 minutes with chloroazodine 1/1500, 21 days after infection): 0,188 ± 0,016
Mesure d'infectivité du virus VIH-1 (D.O.492) (virus incubated 10 minutes with chloroazodine 1/1500, 24 days after infection): 0,180 ± 0,008
Mesure d'infectivité du virus VIH-1 (D.O.492) (virus incubated 10 minutes with chloroazodine 1/3000, 10 days after infection): 0,202 ± 0,021
Mesure d'infectivité du virus VIH-1 (D.O.492) (virus incubated 10 minutes with chloroazodine 1/3000, 14 days after infection): 0,146 ± 0,010
Mesure d'infectivité du virus VIH-1 (D.O.492) (virus incubated 10 minutes with chloroazodine 1/3000, 17 days after infection): 0,157 ± 0,005
Mesure d'infectivité du virus VIH-1 (D.O.492) (virus incubated 10 minutes with chloroazodine 1/3000, 21 days after infection): 0,182 ± 0,018
Mesure d'infectivité du virus VIH-1 (D.O.492) (virus incubated 10 minutes with chloroazodine 1/3000, 24 days after infection): 0,166 ± 0,004
Mesure d'infectivité du virus VIH-1 (D.O.492) (virus incubated 30 minutes with chloroazodine 1/1500, 10 days after infection): 0,185 ± 0,008
Mesure d'infectivité du virus VIH-1 (D.O.492) (virus incubated 30 minutes with chloroazodine 1/1500, 14 days after infection): 0,142 ± 0,010
Mesure d'infectivité du virus VIH-1 (D.O.492) (virus incubated 30 minutes with chloroazodine 1/1500, 17 days after infection): 0,176 ± 0,004
Mesure d'infectivité du virus VIH-1 (D.O.492) (virus incubated 30 minutes with chloroazodine 1/1500, 21 days after infection): 0,194 ± 0,007
Mesure d'infectivité du virus VIH-1 (D.O.492) (virus incubated 30 minutes with chloroazodine 1/1500, 24 days after infection): 0,163 ± 0,003
Mesure d'infectivité du virus VIH-1 (D.O.492) (virus incubated 30 minutes with chloroazodine 1/3000, 10 days after infection): 0,205 ± 0,013
Mesure d'infectivité du virus VIH-1 (D.O.492) (virus incubated 30 minutes with chloroazodine 1/3000, 14 days after infection): 0,176 ± 0,005
Mesure d'infectivité du virus VIH-1 (D.O.492) (virus incubated 30 minutes with chloroazodine 1/3000, 17 days after infection): 0,174 ± 0,015
